Structures are written as SMILES. Like-named read-outs stand apart in the source and are kept apart here.

This data set can be described thus: Biodistribution of SLS MDI formulation: drug concentrations in lung and blood (Table 5). The format is in vivo, male Sprague-Dawley rats. The settings on record: rats. As to the method:
A SLS (sodium lauryl sulfate) MDI formulation was tested in the following biodistribution study. One group of 13 male Sprague-Dawley rats, weighing 400 to 500 grams was used. This group of animals was dosed with a sodium lauryl sulfate-based R(+)-N-[3-[5-(4-fluorophenoxy)-2-furanyl]-1-methyl-2-propynyl]-N-hydroxyurea MDI formulation. Blood samples were collected at 0.083, 0.25, 0.5, 1, 2, 4 and 6 hours after dosing. One animal in each group was sacrificed at 0.25, 0.5, 1, 2, 4 and 6 hours after dosing for the determination of drug concentrations in the lung.

In the case of `C[C@H](C#Cc1ccc(Oc2ccc(F)cc2)o1)N(O)C(N)=O` [R(+)-N-[3-[5-(4-fluorophenoxy)-2-furanyl]-1-methyl-2-propynyl]-N-hydroxyurea], for the setting “MDI formulations in HFA-134a”, the reproducibility of delivery entry is reported as “reproducibly delivered”. For the same compound, where the note is “SLS MDI, lung, time 0 hr, footnote c”, the “fraction of theoretically delivered drug (lung)” value was 26.7%. In addition, under “SLS-based MDI”, the “drug concentration recovered from the lung following delivery” value is “about 67 μg/g”. The compound also showed a concentration at 0.083 h (rat, blood, inhaled or intranasal, SLS MDI 10 mg/mL drug, 0.3% SLS in HFA134a, 0.083 hr (n = 12)) of 0.11 ± 0.08 µg/mL. Also, the concentration at 0.25 h reads like this: (rat, blood, inhaled or intranasal, SLS MDI 10 mg/mL drug, 0.3% SLS in HFA134a, 0.25 hr (n = 12), read-out: Concentrations of Drug, Blood) 0.14 ± 0.07 µg/mL; (rat, lung, inhaled or intranasal, SLS MDI 10 mg/mL drug, 0.3% SLS in HFA134a, 0.25 hr, read-out: Concentrations of Drug, Lung) 14500 ± 6330 ng/g. The concentration at 0.5 h by setting is: (rat, blood, inhaled or intranasal, SLS MDI 10 mg/mL drug, 0.3% SLS in HFA134a, 0.5 hr (n = 9), read-out: Concentrations of Drug, Blood) 0.18 ± 0.08 µg/mL; (rat, lung, inhaled or intranasal, SLS MDI 10 mg/mL drug, 0.3% SLS in HFA134a, 0.5 hr, read-out: Concentrations of Drug, Lung) 12100 ± 4720 ng/g. Further, the concentration at 1 h by setting is: (rat, blood, inhaled or intranasal, SLS MDI 10 mg/mL drug, 0.3% SLS in HFA134a, 1.0 hr (n = 8), read-out: Concentrations of Drug, Blood) 0.18 ± 0.06 µg/mL; (rat, lung, inhaled or intranasal, SLS MDI 10 mg/mL drug, 0.3% SLS in HFA134a, 1.0 hr, read-out: Concentrations of Drug, Lung) 13100 ± 15700 ng/g. Besides, the concentration at 2 h was 0.15 ± 0.06 µg/mL (rat, blood, inhaled or intranasal, SLS MDI 10 mg/mL drug, 0.3% SLS in HFA134a, 2.0 hr (n = 6), read-out: Concentrations of Drug, Blood) and 16600 ± 13000 ng/g (rat, lung, inhaled or intranasal, SLS MDI 10 mg/mL drug, 0.3% SLS in HFA134a, 2.0 hr, read-out: Concentrations of Drug, Lung). Also, the concentration at 4 h reads like this: (rat, blood, inhaled or intranasal, SLS MDI 10 mg/mL drug, 0.3% SLS in HFA134a, 4.0 hr (n = 4), read-out: Concentrations of Drug, Blood) 0.2 ± 0.04 µg/mL; (rat, lung, inhaled or intranasal, SLS MDI 10 mg/mL drug, 0.3% SLS in HFA134a, 4.0 hr, read-out: Concentrations of Drug, Lung) 8540 ± 3100 ng/g. The concentration at 6 h by setting is: (rat, blood, inhaled or intranasal, SLS MDI 10 mg/mL drug, 0.3% SLS in HFA134a, 6.0 hr (n = 2), read-out: Concentrations of Drug, Blood) 0.28 ± 0.27 µg/mL; (rat, lung, inhaled or intranasal, SLS MDI 10 mg/mL drug, 0.3% SLS in HFA134a, 6.0 hr, read-out: Concentrations of Drug, Lung) 9850 ± 2910 ng/g. Further, the “Concentrations of Drug, Lung” value (SLS MDI 10 mg/mL drug, 0.3% SLS in HFA134a, 0 hr) was 66.74 µg/g.

Source of the values: US5676931A, “Aerosol drug formulations for use with non CFC propellants” (Abbott Laboratories, priority 1996, dated 1997).
